Test results taken from US10357500B2, “Neuro-protective agents and uses thereof” (Guangzhou Cellprotek Pharmaceutical Co., Ltd., priority 2014, dated 2019).
Entries after “also recorded” stand apart in the source; their conditions may differ.

Legend:
Assay type in all cases: in vivo
[1] = tested on: Macaca fascicularis in acute hypobaric hypoxia; assay: Neurological score, acute hypobaric hypoxia model (simulated 7,500 m); settings: for neurological function / neurological score (in words): acute hypobaric hypoxia, simulated 7,500 meters, vs solvent control
Text: (§1) 17 healthy male Macaca fascicularis, 6 to 6.5 years-old, weighted 6.8-7.5 kg, were used. The use of laboratory animals is approved by Committee of laboratory animal management and use and experimental animal ethics committee. The experiment scheme complies with rules concerning animal protection, animal welfare and ethical principles. The 17 Macaca fascicularis were grouped randomly into 3 groups (Table 1).
(§2) The low pressure chamber group is a platform used to simulate low temperature and low pressure plateau environment. The system can be manipulated to simulate a low pressure environment having any altitude below 10000 meters and any temperature above −30° C. The ascending velocity: 3 m/second (0 to 6000 m); descending velocity: 2 m/second (6000 m to 7500 m); constant temperature: 22° C.; average air flow velocity: 150 m^3/h.
(§3) (1) An altitude of 7,500 meters was simulated by manipulation of the low-pressure chamber to cause acute hypoxia in Macaca fascicularis.
(§4) The Macaca fascicularis raised in the laboratory animal housing were labeled and transferred to the low-pressure chamber. The Macaca fascicularis was fed for 1 more day in the chamber in order to make them adapt to the experimental environment. The pressure in the low-pressure chamber was adjusted to simulate altitudes of 3,000, 4,500, and 6,000 meters, staying at each altitude for 30 minutes, followed by simulation of an altitude of […] for 24 hours. The animals were then treated with drugs individually at pre-determined doses. After treatment at 7,500 meters for 48 hours, the altitude was decreased to 6,000 meters at a velocity of 3 m/s. The animals were subject to ketamine anesthesia, sacrificed, dissected and subject to sampling. The samples were fixed. Animals grouped in plain controls were raised in an animal housing at an altitude of 350 m before assessment and sacrifice.
(§5) (2) The animals in 5α-androstane-3β,5,6β-triol treatment group were administered through intravenous injection 10 mL of 5α-androstane-3β,5,6β-triol solution in glucose saline at a dosage of 10 mg/kg before simulation, after 30 min at 3,000 meters, and after 30 min at 4,500 meters, respectively. The animals in solvent control group were given 10 mL of glucose saline through intravenous injection.
(3) The animals in 5α-androstane-3β,5,6β-triol treatment group were administered by skeletal muscle injection at 5 different points with 5α-androstane-3β,5,6β-triol sustained-release formulation at a dosage of 30 mg/kg after 30 min at 6,000 meters. Acute plateau hypoxia models were administered 10 mL of glucose saline through intravenous injection. […]
Animals were stayed at simulated altitude of 7,500 meters for 24 hours before descending to 6,000 meters at a speed of 3 m/s. The neurological scores were evaluated and recorded according to a reported method (Zhu et al, An improved method of neurological score for non-human primates, Chinese Journal of Comparative Medicine, 2011, 21 (9): 58-62). The neurological score was evaluated and recorded by two trained observers who were neither aware of the grouping nor involved in the drug administering. […]
The results were indicated as mean±standard deviation, and statistically analyzed by software SigmaPlot. […]

[2] = tested on: Macaca fascicularis in acute hypobaric hypoxia; assay: Cerebral water content of left hemisphere, acute hypobaric hypoxia model; settings: for Cerebral Water Content (%): left hemisphere, 48 hours at simulated 7,500 meters, 10 mg/kg i.v. and 30 mg/kg i.m., repeated after 24 hours; for increase of cerebral water content (in words): acute hypobaric hypoxia, simulated 7,500 meters, vs solvent control
Text: as §1, §2, §3, §4, §5
(§6) (3) The animals in 5α-androstane-3β,5,6β-triol treatment group were administered by skeletal muscle injection at 5 different points with 5α-androstane-3β,5,6β-triol sustained-release formulation at a dosage of 30 mg/kg after 30 min at 6,000 meters. Acute plateau hypoxia models were administered 10 mL of glucose saline through intravenous injection.
(4) The animals in 5α-androstane-3β,5,6β-triol treatment group were administered through intravenous injection 10 mL of 5α-androstane-3β,5,6β-triol injection in glucose saline at a dosage of 10 mg/kg after 24 hours at 7,500 meters, and further by skeletal muscle injection at 5 different points with 5α-androstane-3β,5,6β-triol sustained-release formulation at a dosage of 30 mg/kg. […]
Cerebral water content was measured according to a reported method (Patir H, Sarada S K, Singh S, Mathew T, Singh B, Bansal A. Quercetin as a prophylactic measure against high altitude cerebral edema. Free Radic Biol Med 2012 Aug. 15; 53(4):659-68). […] Brains of the animals were rapidly taken out and the wet weights of the left hemispheres were measured. The left hemispheres were then placed in a drying oven at 60° C., and were measured their weights daily at a fixed time until no weight change was observed. […]

[3] = tested on: Macaca fascicularis in acute hypobaric hypoxia; assay: HE staining of the cortical tissue of the frontal lobe (neuronal vacuolar degeneration); settings: frontal lobe cortex, vs solvent control
Text: as §1, §2, §3
The Macaca fascicularis raised in the laboratory animal housing were labeled and transferred to the low-pressure chamber. The Macaca fascicularis was fed for 1 more day in the chamber in order to make them adapt to the experimental environment. […] The animals were then treated with drugs individually at pre-determined doses. […]

[4] = tested on: Macaca fascicularis in acute hypobaric hypoxia; assay: Transmission electron microscopy of the cortical tissue of the frontal lobe (vasogenic edema); settings: frontal lobe cortex, transmission electron microscope, vs solvent control
Text: as §1, §2, §3, §4, §5, §6
(4) The animals in 5α-androstane-3β,5,6β-triol treatment group were administered through intravenous injection 10 mL of 5α-androstane-3β,5,6β-triol injection in glucose saline at a dosage of 10 mg/kg after 24 hours at 7,500 meters, and further by skeletal muscle injection at 5 different points with 5α-androstane-3β,5,6β-triol sustained-release formulation at a dosage of 30 mg/kg. Acute plateau hypoxia models were administered 10 mL of glucose saline through intravenous injection.
The cortical tissues of the frontal lobes of the animals were taken out and cut to provide brain pieces of 1 mm^3, which were fixed in a stationary liquid of 2.5% glutaraldehyde to prepare ultrathin sections. The morphology of neurons and the structure of blood vessels were observed by transmission electron microscopy.

C[C@@]12CCC[C@H]1[C@@H]1C[C@@H](O)[C@@]3(O)C[C@@H](O)CC[C@]3(C)[C@H]1CC2 [5α-androstane-3β,5,6β-triol]
neurological score ([1]; 24 hours at simulated 7,500 meters, 10 mg/kg i.v. x3 and 30 mg/kg i.m. sustained-release, solvent control 31.6±4.2, mean±SD): 20.5±5.7
neurological function / neurological score (in words) [1]: significantly improved
Cerebral Water Content (%) ([2]; plain control 76.155, solvent control 76.714): 76.283 ± 0.235 %
Cerebral Water Content (%) ([2]; plain control 76.155, solvent control 76.714, listed as 5α-androstane-3β3,5,6β-triol): 76.283%
neuronal vacuolar degeneration (in words) [3]: reduced neuronal vacuolar degeneration
vasogenic edema / Virchow-Robin space of cortical capillary vessels (in words) [4]: reduced; also recorded: no significant vasogenic edema occurred

CC(C)CCC[C@@H](C)[C@H]1CC[C@H]2[C@@H]3C[C@@H](O)[C@@]4(O)C[C@@H](O)CC[C@]4(C)[C@H]3CC[C@]12C [Compound I, cholestane-3β,5α,6β-triol]
neuronal vacuolar degeneration (in words) [3]: effectively reduce
vasogenic edema / Virchow-Robin space of cortical capillary vessels (in words) [4]: effectively reduce

CCC=C1CC[C@H]2[C@@H]3C[C@@H](O)[C@@]4(O)C[C@@H](O)CC[C@]4(C)[C@H]3CC[C@]12C [Compound II, 17-propylidene-androstane-3β,5α,6β-triol]
neurological function / neurological score (in words) [1]: effectively protected
increase of cerebral water content (in words) [2]: inhibited increase of the cerebral water content
vasogenic edema / Virchow-Robin space of cortical capillary vessels (in words) [4]: no significant angioedema

CC(C)C1CC[C@H]2[C@@H]3C[C@@H](O)[C@@]4(O)C[C@@H](O)CC[C@]4(C)[C@H]3CC[C@]12C (stereo partly drawn) [Compound III, 17-isopropyl-androstane-3β,5α,6β-triol]
neurological function / neurological score (in words) [1]: effectively protected
increase of cerebral water content (in words) [2]: inhibited increase of the cerebral water content
vasogenic edema / Virchow-Robin space of cortical capillary vessels (in words) [4]: no significant angioedema

CCCCC1CC[C@H]2[C@@H]3C[C@@H](O)[C@@]4(O)C[C@@H](O)CC[C@]4(C)[C@H]3CC[C@]12C (stereo partly drawn) [Compound IV, 17-butyl-androstane-3β,5α,6β-triol]
neurological function / neurological score (in words) [1]: effectively protected
increase of cerebral water content (in words) [2]: inhibited increase of the cerebral water content
vasogenic edema / Virchow-Robin space of cortical capillary vessels (in words) [4]: no significant angioedema
